Measured values taken from patent publication US4284635A, “Analgesic 1,2,4,5-tetra-alkyl-4-arylpiperidines” (Eli Lilly and Company, priority 1978, dated 1981).

Assay: rat-tail jerk assay (rats subjected to a heat sensation)
Type: in vivo
Details: subcutaneous
Source text: The analgesic activity of a number of compounds provided by this invention has been determined in the standard rat-tail jerk assay and the mouse writhing assay. The results in the mouse writhing assay are presented as the effective dose in mg./kg. of the tested compound required to inhibit induced writhing in the test animals by fifty percent (ED50). Results are presented in Column II for both subcutaneous (S.C.) and oral (p.o.) administration of the test compound recited in Column I.
Column III presents the effects of the claimed compounds on rats subjected to a heat sensation. The compounds recited in column I were administered subcutaneously to the test animals. The test results are reported as the minimum effective dose (MED) of compound in mg./kg. needed to delay response to the pain stimulus by one second compared to control animals.

Point of comparison: `CCCC1(c2cccc(O)c2)CC(C)N(C)CC1C` (centres unmarked) [1,2,5-trimethyl-4-n-propyl-4-(3-hydroxyphenyl)piperidine], “Rat Tail Jerk MED 1 sec. (minimum effective dose needed to delay response to the pain stimulus by one second compared to control animals)” value 20 mg/kg. Against it:
- COc1cccc(C2(C)CC(C)N(C)CC2C)c1 (centres unmarked) [1,2,4,5-Tetramethyl-4-(3-methoxyphenyl)piperidine] — 2-fold lower, 10 mg/kg
- CC1CC(C)(c2cccc(O)c2)C(C)CN1C (centres unmarked) [1,2,4,5-Tetramethyl-4-(3-hydroxyphenyl)piperidine] — 20-fold lower, 1 mg/kg
- CCOC(=O)C1(c2ccccc2)CCN(C)CC1 [Meperidine, reference compound] — 6.7-fold lower, 3.0 mg/kg
- CCCC1(c2cccc(OC)c2)CC(C)N(C)CC1C (centres unmarked) [1,2,5-Trimethyl-4-n-propyl-4-(3-methoxyphenyl)piperidine] — 10-fold lower, 2 mg/kg
